Data taken from patent US20200375929A1, “METHODS AND COMPOSITIONS FOR THE TREATMENT OF DISEASES ASSOCIATED WITH CANCER, INFLAMMATION, OR IMMUNE RESPONSE” (Washington University, priority 2017, published 2020).
“Also recorded” adds a separate entry of the source.

Test system: NFkB pathway
Assay: Canonical NFkB signaling in LPS-stimulated BMDMs (p65 translocation, IKK, IkBa)
Type: cell-based, mouse
Description: BMDM were prepared from 6- to 12-week-old mice as described 1 and cultured in RMPI-1640 medium supplemented with 10% fetal bovine serum (FBS), 2 mM L-glutamine, and 100 U/mL penicillin-streptomycin and mouse recombinant M-CSF ([…], Peprotech). For experiments, cells were seeded at concentration 10^6 cells/mL in tissue culture plates of various formats. The cells were treated with DI (250 μM (unless stated otherwise), cat #592498, Sigma), DMF (50 μM (unless stated otherwise), cat #242926, Sigma), 3-(ethoxycarbonyl)but-3-enoic acid (3MI, 5 μM, Aris Pharmaceuticals Inc.), 4-ethoxy-2-methylene-4-oxobutanoic acid (MI, Aris Pharmaceuticals Inc.) for 12 h and activated with lipopolysaccharide (LPS; 100 ng/mL; E. coli 0111:B4, Sigma) for 1 h or as indicated. In some experiments cells were stimulated with combination of LPS (20 ng/mL) and IFN-γ (50 ng/mL; Peprotech). In some experiments cells were treated with α-tocopherol (AT, 10 μM; Sigma), MitoTEMPO (MT, 500 μM; Sigma), N-acetylcysteine (NAC, 1 mM, Sigma), ethylester of GSH (EtGSH; 1 mM, Santa Cruz) or buthionene sulfoximine (BSO, 500 μM, Sigma) alone or in combination with DI for 12 h. […]
Cells were lysed in RIPA Lysis Buffer System (Santa Cruz) and heat-denatured at 95° C. for 5 min in reducing sample buffer (BioRad). […] Non-specific binding was blocked with 5% skim milk (or 5% BSA when phospho-proteins were analyzed), and membranes were probed with primary antibodies specific to Nrf2 (#12721), HO-1 (#70081), IκBζ (mouse specific, #93726), IκBζ(#9244), ATF3 (#D2Y5W), IRAK1 (#4504; sensitivity of IRAK1 detection diminishes upon IRAK1 K63 ubiquitination), phospho-IKK (Ser176/180, #2697), p62/SQSTM1 (#5114), phospho-eIF2α (Ser51, #9721), eIF2α (#5324) from Cell Signaling; GAPDH (sc-25778), IκBα (sc-1643), ATF3 (sc-188), SDHA (sc-166909) from Santa Cruz; NQO1 (ab28947) from Abeam, followed by incubation with anti-rabbit-HRP (1:10,000; sc-2030) or anti-mouse-HRP (1:10,000; sc-2031) from Santa Cruz and Clarity western ECL substrate (Bio-Rad). […]

C=C(CC(=O)OC)C(=O)OC [DI, dimethyl itaconate]
p65 nuclear translocation upon LPS (BMDMs, DI 250 μM 12 h, LPS): does not inhibit nuclear translocation of p65; also recorded: nor did it prevent LPS-mediated p65 nuclear translocation
IκBα degradation in response to LPS (BMDMs, DI, LPS): did not inhibit IκBα degradation
canonical NFkB response (DI at concentrations effective to inhibit IL6, p65 translocation, IKK activation, IkBa degradation): not affected
